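Exposure lasted 48 hours, with cells grown in 96-well plates and compounds tested at five concentrations. Here, GI50 denotes the concentration required for 50% inhibition of growth. TGI marks complete inhibition of growth.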 Where a SMILES comes first, the peptide text is derived from it. The star is where a group is joined. Cbz = O=C(OCc1ccccc1)*; CH2Cl = ClC*

For eleven compounds, GI50 and TGI results are on record in PubChem BioAssay (NCI).

Among the test systems are NCI/ADR-RES ovarian; HS 578T breast; MCF7 breast; T-47D breast; BT-549 breast; MDA-MB-435; DU-145 prostate.
Holding throughout (test): NCI anticancer screen, dose series, 48 h

On to `O=C1OCC2=C1C(c1cccc(Br)c1)c1cc3c(cc1N2CCO)CCC3` (stereo unspecified), for which the GI50 is 0.025 µM in the experiment with NCI/ADR-RES ovarian; 0.151 µM in the experiment on HS 578T breast; 0.0257 µM in the experiment on MCF7 breast; 2.37 µM in the experiment on T-47D breast; 0.209 µM with BT-549 breast; 0.0132 µM with MDA-MB-435. The GI50 with DU-145 prostate was 0.137 µM. In addition, the TGI with NCI/ADR-RES ovarian was 0.234 µM; in the experiment with HS 578T breast it was 11.4 µM; in the experiment with MCF7 breast, 9.66 µM; with T-47D breast, 17.9 µM; in the experiment on BT-549 breast, 6.5 µM; with MDA-MB-435, 0.0423 µM. In the experiment on DU-145 prostate, this compound returned a TGI of 0.466 µM.
In the case of `C=C(C)[C@@H]1CC[C@]2(C)[C@H](CC=C3[C@@H]4CC(C)(C)CC[C@]4(C(N)=O)CC[C@]32C)[C@@]1(C)CCC#N`, the GI50 in the experiment on NCI/ADR-RES ovarian is 3.75 µM; in the experiment with HS 578T breast, 3.28 µM; in the experiment with MCF7 breast, 2.81 µM; in the experiment on T-47D breast, 3.27 µM; in the experiment on BT-549 breast it was 2.09 µM; in the experiment with MDA-MB-435, 3.21 µM. Further, in the experiment with DU-145 prostate, the GI50 was 4.8 µM. Besides, the TGI in the experiment on NCI/ADR-RES ovarian was more than 100 µM; in the experiment on HS 578T breast it was 54.6 µM; in the experiment with MCF7 breast it was 24.5 µM; in the experiment on T-47D breast, more than 100 µM; with BT-549 breast, 5.53 µM; with MDA-MB-435, 20.5 µM. The compound also registered a TGI in the experiment on DU-145 prostate of more than 100 µM.
In the case of `CC(C)CC(NC(=O)OCc1ccccc1)C(=O)NC(Cc1ccccc1)C(=O)CCl` (stereo not drawn) (Cbz-Leu-Phe-CH2Cl; configuration not given here), the TGI is 11.4 µM with NCI/ADR-RES ovarian; 25.7 µM in the experiment on HS 578T breast; 7.85 µM with MCF7 breast; 4.89 µM in the experiment on T-47D breast; 6.16 µM in the experiment on BT-549 breast; 6.56 µM with MDA-MB-435. Besides, the TGI in the experiment with DU-145 prostate is more than 100 µM.
For the compound `COc1ccc2c(c1)C(=O)c1c-2c(N2CCN(C(=O)CNCCNCCO)CC2)nc2ccccc12`, the GI50 with NCI/ADR-RES ovarian was 15 µM; with HS 578T breast, 5.92 µM; in the experiment on MCF7 breast, 1.75 µM; in the experiment with T-47D breast, 2.49 µM; in the experiment with BT-549 breast, 3.67 µM; with MDA-MB-435, 8.18 µM. In addition, the GI50 in the experiment on DU-145 prostate was 6.17 µM. For the same compound, the TGI in the experiment with NCI/ADR-RES ovarian came out at 33.1 µM; in the experiment with HS 578T breast it was 25.7 µM; with MCF7 breast it was 3.5 µM; in the experiment with T-47D breast, 6.55 µM; in the experiment on BT-549 breast, 12.6 µM; with MDA-MB-435 it was 28.5 µM. In the experiment on DU-145 prostate, this compound had a TGI of 18.4 µM.
For `CS(=O)(=O)CCNCc1nc(-c2ccc3ncnc(Nc4ccc(OCc5cccc(C(F)(F)F)c5)cc4)c3c2)cs1`, the GI50 in the experiment with NCI/ADR-RES ovarian was more than 25 µM; in the experiment with HS 578T breast, 9.11 µM; in the experiment with MCF7 breast it was more than 17.5 µM; in the experiment with T-47D breast, 5.42 µM; in the experiment with BT-549 breast it was more than 25 µM; in the experiment with MDA-MB-435, more than 25 µM. In addition, the GI50 in the experiment on DU-145 prostate was more than 17.7 µM. The TGI in the experiment with NCI/ADR-RES ovarian, in the experiment on HS 578T breast, with MCF7 breast, with T-47D breast, in the experiment with BT-549 breast and in the experiment on MDA-MB-435 was more than 25 µM in each case. Moreover, in the experiment on DU-145 prostate, the TGI is more than 25 µM.
On to `O=C(N[C@@H](c1ccc(Cl)c(Cl)c1)C1CNC1)c1ccc2cnccc2c1`, for which the GI50 with NCI/ADR-RES ovarian was 12.1 µM; in the experiment with HS 578T breast, 0.0256 µM; with MCF7 breast, 0.2 µM; with T-47D breast, 0.0591 µM; in the experiment with BT-549 breast it was 0.301 µM; in the experiment with MDA-MB-435, 0.216 µM. Besides, the GI50 in the experiment with DU-145 prostate is 0.644 µM. The TGI in the experiment with NCI/ADR-RES ovarian came out at 27.1 µM; in the experiment on HS 578T breast, 0.483 µM; in the experiment on MCF7 breast, 1.59 µM; with T-47D breast, 3.57 µM; with BT-549 breast it was 1.67 µM; in the experiment on MDA-MB-435 it was 3.81 µM. Also, the TGI in the experiment with DU-145 prostate was found to be 13.2 µM.
`COc1cc(Cn2c(-c3ccccc3)c(Cl)c3c2-c2oncc2CC3)cc(OC)c1`: the GI50 was 2.58 µM with NCI/ADR-RES ovarian; 3.71 µM with HS 578T breast; 3.81 µM in the experiment on MCF7 breast; 17.5 µM in the experiment on T-47D breast; 2.26 µM in the experiment on MDA-MB-435; 26.6 µM with DU-145 prostate. The TGI is 8.96 µM in the experiment on NCI/ADR-RES ovarian; 82.3 µM in the experiment with HS 578T breast; more than 100 µM with MCF7 breast; more than 100 µM in the experiment with T-47D breast; 5.97 µM with MDA-MB-435; more than 100 µM in the experiment with DU-145 prostate.
Take `CCOC(=O)Nc1ccc(C)c(NC(=O)OCC)c1`: the TGI with NCI/ADR-RES ovarian, with HS 578T breast, in the experiment with MCF7 breast, with T-47D breast, in the experiment on MDA-MB-435 and in the experiment with DU-145 prostate was more than 100 µM in each case.
Turning to `COc1ccc(/C=C2/N=C(c3ccccc3)N(c3c(C)n(C)n(-c4ccccc4)c3=O)C2=O)cc1OC`, the GI50 was more than 100 µM in the experiment on NCI/ADR-RES ovarian; 60 µM in the experiment with HS 578T breast; 70.5 µM with MCF7 breast; 77.5 µM with T-47D breast; more than 100 µM with MDA-MB-435; more than 100 µM with DU-145 prostate. Moreover, the TGI in the experiment on NCI/ADR-RES ovarian, with HS 578T breast, with MCF7 breast, in the experiment on T-47D breast, with MDA-MB-435 and in the experiment on DU-145 prostate was more than 100 µM in each case.
With `COc1cc2c(cc1OCCCNC(=O)c1cccc3c(=O)c4ccccc4[nH]c13)N=C[C@@H]1CCCN1C2=O`, the GI50 in the experiment with NCI/ADR-RES ovarian was 0.379 µM; in the experiment on HS 578T breast it was less than 0.01 µM; in the experiment on MCF7 breast, less than 0.0242 µM; with T-47D breast, less than 0.01 µM; in the experiment with BT-549 breast, less than 0.01 µM; in the experiment with DU-145 prostate, less than 0.01 µM. Further, the TGI in the experiment on NCI/ADR-RES ovarian was more than 26.4 µM; in the experiment on HS 578T breast it was 0.121 µM; with MCF7 breast, 13.8 µM; in the experiment on T-47D breast, 29.6 µM; in the experiment on BT-549 breast, less than 0.0437 µM; with DU-145 prostate, 13.5 µM.
Regarding `COc1cc(-c2cc(-c3cc4c([nH]c5ccccc54)c(-c4cc(OC)c(OC)c(OC)c4)n3)cc(-c3ccccc3)n2)cc(OC)c1OC`, the GI50 with NCI/ADR-RES ovarian is 3.12 µM; in the experiment on HS 578T breast, 6.09 µM; with MCF7 breast, 3.56 µM; in the experiment on T-47D breast, 2.8 µM; with BT-549 breast it was 6.74 µM; in the experiment on DU-145 prostate, 11 µM. The TGI was 94.8 µM in the experiment on NCI/ADR-RES ovarian; more than 100 µM in the experiment with HS 578T breast; 20.8 µM in the experiment on MCF7 breast; 35.4 µM in the experiment on T-47D breast; 91.2 µM with BT-549 breast; more than 100 µM with DU-145 prostate.
